Test results reported in PMC9027599, “Secondary Metabolites in Basil, Bio-Insecticide, Inhibition Effect, and In Silico Molecular Docking against Proteolytic Enzymes of the Red Palm Weevil (Rhynchophorus ferrugineus)” (Plants, 2022).

Key:
total proteases [1] = experiment: Total protease activity of midgut from larvae treated 24 h (in vivo); set-up: species or system Rhynchophorus ferrugineus; conditions: midgut of fourth instar larvae treated for 24 h
Protocol: (§1) The Lowry technique was used to determine the protein concentrations. Total proteolytic activity was determined in the fourth midgut instar larval (lab strain) homogenate of R. ferrugineus with azocasein in accordance with […] et al. […] [70]. […] Using a Sigma 3k30 cooling centrifuge, reserve homogenates prepared in a previous stage were spun at 5000 rpm for 30 min. Estimates of protein content and total proteolytic enzyme activity were made using the supernatants. The supernatant (10 μL) was incubated at 37 °C for 20 min, and the volume was adjusted to 60 μL using an assay buffer (pH 8), before adding azocasien (200 μL, 2% (w/v)). […] Following that, to activate the reaction, the substrate was introduced 20 min for Leupeptin, so the reaction was halted after 180 min at 37 °C with 300 μL of cool tri-chloroacetic acid (TCA) (10% (v/v). The mixture was centrifuged for 20 min at 5000 rpm (Sigma 3k30 cooling centrifuge). […] To learn more about the proteases found in homogenate preparations of R. ferrugineus fourth midgut larval instars, inhibitors from many different types of mechanisms were used. […] As a control, an assay combination devoid of inhibitors was utilized. The absorbance of the enzymes was determined using an ELISA plate quick reader at various wavelengths. The percentage activity of the control enzyme for each inhibitor was evaluated for each enzyme. […] Larvae were exposed for 24 h to leaf discs treated with extract and compounds.

metalloprotease = experiment: Metalloprotease activity of midgut from larvae treated 24 h (in vivo); set-up: species or system Rhynchophorus ferrugineus; conditions: midgut of fourth instar larvae treated for 24 h
Protocol: A substrate azocasein assessed the metalloproteinases activity in the fourth midgut instar larval homogenate. Ten larvae were carefully removed, dissected, and rinsed repeatedly with NaCl solution (0.9% (w/v). […] After homogenization, the homogenates were centrifuged at 5000 rpm (for 30 min) using a Sigma centrifuge 3k30, and the supernatant was utilized to determine enzyme activity and protein content. The supernatant per experiment (10 µL) was incubated for 20 min at 37 °C, and the volume was adjusted to 60 µL using assay buffer pH 8 before adding azocasein (200 µL, 2% (w/v)). In all instances, 10 µL enzyme samples were incubated for 10 min (except EDTA with 20 min), and EDTA was used as a blocker of metalloproteinase activity before being added to the specific substrate. The reaction was interrupted with 300 µL of trichloroacetic acid (TCA cold, 10% (v/v) and continued at 37 °C for 180 min. The reaction mixture was then centrifuged at 5000 rpm for 20 min (Sigma centrifuge 3k30), sodium hydroxide (10 µL of 10 N) was incorporated into the supernatant, then absorbance was determined using an ELISA plate reader at 450 nm. As a blank, an assay mixture devoid of the enzyme was devoted, the specific activity was determined using the OD450 mg^−1 protein min^−1 value, and a blank solution sample devoid of enzyme solution was determined. To learn more about the proteases found in homogenate preparations of R. ferrugineus fourth midgut larval instars, inhibitors from many different types of mechanisms were used. […] As a control, an assay combination devoid of inhibitors was utilized. The absorbance of the enzymes was determined using an ELISA plate quick reader at various wavelengths. The percentage activity of the control enzyme for each inhibitor was evaluated for each enzyme. […] Larvae were exposed for 24 h to leaf discs treated with extract and compounds.

total proteases [2] = experiment: Total proteolytic activity of fourth instar midgut homogenate, azocasein (in vitro); assay type: biochemical, Rhynchophorus ferrugineus; conditions: fourth instar larvae midgut homogenate
Protocol: as §1

[3] = biological target: trypsin-like serine proteinase; experiment: Serine proteinase microplate assay, BApNA (in vitro); assay type: biochemical, Rhynchophorus ferrugineus; conditions: fourth instar larvae midgut homogenate
Protocol: The specific activities of serine proteinase were determined using a rapid quick microplate assay with substrates in reaction mixtures (150 μL) including a serine protease assay buffer, according to […] et al. and Olga et al. with modifications. The midguts were homogenized in the assay buffer (100 mM Tris-HCl, pH 8.1) and centrifuged for 30 min at 8000 rpm (Sigma 3K 30, rotors No. 12158). […] […] (100 mg/mL in DMF), BAρNA (100 mg/mL in DMSO), and […] (100 mg/mL in DMF) stock substrates were diluted in the assay buffer to 1 mg/mL, and substrate volume was 50 μL. […] The activity was quantified using an ELISA plate reader at a wavelength of 405 nm. As an empty well, an assay combination containing a denaturation enzyme was utilized instead of an active enzyme. […] To learn more about the proteases found in homogenate preparations of R. ferrugineus fourth midgut larval instars, inhibitors from many different types of mechanisms were used. […] As a control, an assay combination devoid of inhibitors was utilized. The absorbance of the enzymes was determined using an ELISA plate quick reader at various wavelengths. The percentage activity of the control enzyme for each inhibitor was evaluated for each enzyme. […] Larvae were exposed for 24 h to leaf discs treated with extract and compounds.

[4] = tested on: trypsin-like serine proteinase; experiment: Trypsin-like activity of midgut from larvae treated 24 h (in vivo); set-up: species or system Rhynchophorus ferrugineus; conditions: midgut of fourth instar larvae treated for 24 h
Protocol: The midguts were homogenized in the assay buffer (100 mM Tris-HCl, pH 8.1) and centrifuged for 30 min at 8000 rpm (Sigma 3K 30, rotors No. 12158). […] […] (100 mg/mL in DMF), BAρNA (100 mg/mL in DMSO), and […] (100 mg/mL in DMF) stock substrates were diluted in the assay buffer to 1 mg/mL, and substrate volume was 50 μL. […] The activity was quantified using an ELISA plate reader at a wavelength of 405 nm. As an empty well, an assay combination containing a denaturation enzyme was utilized instead of an active enzyme. […] To learn more about the proteases found in homogenate preparations of R. ferrugineus fourth midgut larval instars, inhibitors from many different types of mechanisms were used. […] As a control, an assay combination devoid of inhibitors was utilized. The absorbance of the enzymes was determined using an ELISA plate quick reader at various wavelengths. The percentage activity of the control enzyme for each inhibitor was evaluated for each enzyme. […] Larvae were exposed for 24 h to leaf discs treated with extract and compounds.

Row | Compound | IC50 against total proteases (in vivo) (total proteases [1]) | IC50 against metalloprotease (in vivo) (metalloprotease) | IC50 against total proteases (in vitro) (total proteases [2]) | IC50 against trypsin-like serine proteinase (in vitro) [3] | IC50 against trypsin-like serine proteinase (in vivo) [4]
1 | COc1ccc(-c2cc(=O)c3c(O)c(OC)c(OC)cc3o2)cc1 [Salvigenin, 5-Hydroxy-6,7,4′-trimethoxyflavone] | 164.8 µg/mL | 113.7 µg/mL | 72.4 µg/mL | 59.2 µg/mL | 241.2 µg/mL
2 | C[C@@H]1O[C@@H](OC[C@H]2O[C@@H](Oc3c(-c4ccc(O)c(O)c4)oc4cc(O)cc(O)c4c3=O)[C@H](O)[C@@H](O)[C@@H]2O)[C@H](O)[C@H](O)[C@H]1O [Quercetin-3-O-rutinoside] | 286.4 µg/mL | 612.4 µg/mL | 82.6 µg/mL | 104.5 µg/mL | 325.5 µg/mL
3 | O=C(O)C[C@H](C(=O)O)[C@@H](O)C(=O)O [Isocitric acid] | 486.3 µg/mL | 169.2 µg/mL | 143.3 µg/mL |  | 314.8 µg/mL
4 | O=C(/C=C/c1ccc(O)c(O)c1)O/C=C\c1ccc(O)c(O)c1 [Nepetoidin B] | 179.4 µg/mL | 95.8 µg/mL | 102.4 µg/mL | 86.7 µg/mL | 102.7 µg/mL
5 | O=C(/C=C/c1ccc(O)c(O)c1)O[C@H](Cc1ccc(O)c(O)c1)C(=O)O [Rosmarinic acid] | 186.2 µg/mL | 86.7 µg/mL | 109.6 µg/mL | 91.3 µg/mL | 174.6 µg/mL
6 | dicaffeoyl-tartaric acid [Chicoric acid] | 146.2 µg/mL | 74.2 µg/mL | 63.1 µg/mL | 51.6 µg/mL | 75.1 µg/mL
